Results on ten molecules are retold here after patent publication US20130029970A1 (priority 2009, published 2013).

Molecules are shown by their SMILES. Read-outs that look alike come from different tables or passages of the source. Where only a bound is given, the exact number is not on record here.

In assay [1] the target is T1, recombinant human cannabinoid receptor CB1 (Homo sapiens, UniProt P21554).
T1 construct: (cDNA clone) CNR01L000
The assay can be described thus: Cannabinoid receptor radioligand binding assay, [3H]-CP 55,940 displacement, hCB1. From the text: (§1) Stable, HEK-293-derived cell lines that recombinantly express hCBI or hCB2 were established. In brief, the clone hCB1 (CNR IL) or hCB2 (CNR2) was transfected into human embryonic kidney cells (HEK-293) using Lipofectamine 2000 (Gibco, Cat#11668-019) according to the manufacturer's protocol. Transfected clones were isolated by single colony purification and clones were screened for receptor expression using a whole cell, ^3H—CP 55,940 radioligand binding assay. HEK-293 stable cells were maintained in Dulbecco's modified Eagles medium (DMEM) containing 10% fetal bovine serum, 2 mM L-glutamine and 0.5 mg/mL G-418.
(§2) Membranes were isolated from transfected cells as follows. Monolayers of cultured cells were washed twice with phosphate-buffered saline (PBS). Cells were scraped into 20 mM HEPES, pH 7.4, 10 mM EDTA containing complete cocktail protease inhibitors (Roche, Catalog #11 697 498 001) and were homogenized by an electric-powered mechanical probe homogenizer (Omni GLH; probe G7-195S) for 40 seconds at 7000 rpm. Homogenates were centrifuged 10 minutes at 1000×g at 4° C. The supernatant was collected and was centrifuged for 1 hour at 40,000×g. The supernatant was then decanted and the resulting pellet was re-suspended in 20 mM HEPES, pH 7.4, 5 mM MgCl2, 1 mM EDTA, 10% sucrose with complete cocktail protease inhibitors. Protein concentration of membrane suspensions were measured by Bradford Protein Assay using bovine serum albumin as the standard (BioRad catalog #500-0006). Protein concentrations of membrane suspensions were adjusted with the final buffer in the range of 5 to 10 mg/mL and were stored at −80° C. until further use.
Radioligand binding assays were performed by incubating membranes (2-10 μg protein) prepared from HEK-293 cells expressing recombinant human cannabinoid receptors, CB1 or CB2, at room temperature with 0.5 nM cannabinoid receptor agonist, [^3H]-CP 55,940 (Perkin Elmer, catalog #NET1051) in 0.2 mL of binding buffer (50 mM Tris-HCl, pH 7.5, 5 mM MgCl2, 2.5 mM EDTA) and 0.1% fatty acid free bovine serum albumin (Sigma Cat. #A0821) for 90 minutes. A rapid filtration technique using Millipore FB filter plates (Catalog #MADVNOB) and filtration apparatus (Millipore system Catalog MAVM0960R) with vacuum aspiration was used to harvest and rinse labeled membranes (8 times with 0.2 mL of chilled binding buffer). The radioactivity bound to the filters was counted with 0.05 mL of liquid scintillant (UltraGold MV, PerkinElmer catalog #6013159) in a scintillation counter (Perkin Elmer Microbeta instrument). Nonspecific binding was determined in the presence of unlabeled 1 μM CP 55,940 (Sigma Aldrich, catalog #C1112). Binding data were analyzed using GraphPad Prism (GraphPad Software, Inc. San Diego, Calif.).

The target of assay [2] is T2, recombinant human cannabinoid receptor CB2 (Homo sapiens, UniProt P34972).
T2 construct: (cDNA clone) CNR0200000
T2 sequence (P34972 whole entry): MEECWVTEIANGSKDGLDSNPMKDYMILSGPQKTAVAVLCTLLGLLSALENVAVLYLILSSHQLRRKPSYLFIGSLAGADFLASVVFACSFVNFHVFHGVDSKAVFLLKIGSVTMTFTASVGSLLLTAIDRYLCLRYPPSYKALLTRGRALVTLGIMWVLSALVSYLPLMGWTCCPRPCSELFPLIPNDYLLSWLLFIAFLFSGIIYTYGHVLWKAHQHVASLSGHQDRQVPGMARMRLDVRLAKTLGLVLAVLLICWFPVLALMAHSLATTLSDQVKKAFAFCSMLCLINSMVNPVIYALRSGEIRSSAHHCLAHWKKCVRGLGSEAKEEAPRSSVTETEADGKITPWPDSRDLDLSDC
The experiment in a line: Cannabinoid receptor radioligand binding assay, [3H]-CP 55,940 displacement, hCB2. As for the experimental part: as §2, with “Cells were scraped into 20 mM HEPES, pH 7.4, 10 mM EDTA containing complete cocktail protease inhibitors (Roche, Catalog #11 697 498 001) and were homogenized by an electric-powered mechanical probe homogenizer (Omni GLH; probe G7-195S) for 40 seconds at 7000 rpm.” left out
A rapid filtration technique using Millipore FB filter plates (Catalog #MADVNOB) and filtration apparatus (Millipore system Catalog MAVM0960R) with vacuum aspiration was used to harvest and rinse labeled membranes (8 times with 0.2 mL of chilled binding buffer). […] Binding data were analyzed using GraphPad Prism (GraphPad Software, Inc. San Diego, Calif.).

The next assay concerns the target T3, human CB1 receptors (Homo sapiens, UniProt P21554).
T3 construct: (cDNA clone) CNR01L000
The assay can be described thus: cAMP assay in HEK-293 cells, hCB1 agonist. The note with it: inhibition of forskolin-stimulated cAMP, HEK-293 cells. The format is cell-based.
Text: as §1
(§3) Functional assays which monitor G-protein coupled receptor or downstream cellular responses can be used to characterize potential CB1 receptor and/or CB2 receptor agonist or antagonist activities. Direct activation (or inhibition of activation) can be monitored using a GTPγS assay (membrane-based assay) or cAMP assay (whole cell-based assay).
(§4) cAMP assays were performed in HEK-293 cells stably expressing human CB1 or CB2 receptors. For cannabinoid receptor functional assays measuring agonist effects on cellular cAMP levels, monolayers of cultured cells were harvested with enzyme-free PBS-based cell dissociation buffer (Gibco, Cat#13151-04). Cells suspensions were centrifuged and the cells were washed once with PBS, were centrifuged again, and the cells were re-suspended in HBSS (Hank's Balanced Salt Solution, Cellgro, Cat #21-022-CV) solution containing 10 mM HEPES and 0.1% fatty acid free BSA (Sigma, Cat #A0281). Cell suspensions were prepared at 1,500,000 cells per ml. Stock solutions of test substances (10 mM) in DMSO were diluted to 1 mM using 30% DMSO as diluent. Test substances of solutions (1 mM) were further diluted down to 3× of final assay concentrations in the above HBSS buffer containing 0.1% BSA in the presence of 90 uM forskolin (Sigma Cat#F6886). To perform the assay, 20 uL of cell suspension (1,500,000 cells/mL) were added to each well in 96 well plate and treated with 10 uL test substance solution diluted as described above. Cells and compounds were incubated at 37° C. for 30 minutes. Cells were lysed and cAMP concentration was measured using DiscoveRx −XS+ cAMP assay kit (DiscoveRx Corporation Ltd., Fremont, Calif., USA, Cat #90-0075-03), following the manufacturer's protocol. GraphPad Prism software was used to calculate EC50 values using sigmoidal dose response curve fitting. The maximal amount of cAMP produced by forskolin was defined as 100%. CB1 or CB2 agonists reduced forskolin-stimulated cAMP signaling. The EC50 value of an agonist compound was defined as the concentration at which 50% of the forskolin-stimulated cAMP synthesis was inhibited.

The target in another assay is T4, human CB2 receptors (Homo sapiens, UniProt P34972).
T4 construct: (cDNA clone) CNR0200000
T4 sequence (P34972 whole entry): as above
The assay can be described thus: cAMP assay in HEK-293 cells, hCB2 agonist. It counts as cell-based. How it is done:
as §3
as §4, with “For cannabinoid receptor functional assays measuring agonist effects on cellular cAMP levels, monolayers of cultured cells were harvested with enzyme-free PBS-based cell dissociation buffer (Gibco, Cat#13151-04).” left out, “100%.” for “100%. CB1 or CB2 agonists reduced forskolin-stimulated cAMP signaling. The EC50 value of an agonist compound was defined as the concentration at which 50% of the forskolin-stimulated cAMP synthesis was inhibited.”

The mark [3] stands for this setting: displacement of 0.5 nM [3H]-CP 55,940, read-out: hCB1 IC50 (CP displ).
Where [4] appears, read: displacement of 0.5 nM [3H]-CP 55,940, read-out: hCB2 IC50 (CP displ).

T1 sequence (P21554 whole entry): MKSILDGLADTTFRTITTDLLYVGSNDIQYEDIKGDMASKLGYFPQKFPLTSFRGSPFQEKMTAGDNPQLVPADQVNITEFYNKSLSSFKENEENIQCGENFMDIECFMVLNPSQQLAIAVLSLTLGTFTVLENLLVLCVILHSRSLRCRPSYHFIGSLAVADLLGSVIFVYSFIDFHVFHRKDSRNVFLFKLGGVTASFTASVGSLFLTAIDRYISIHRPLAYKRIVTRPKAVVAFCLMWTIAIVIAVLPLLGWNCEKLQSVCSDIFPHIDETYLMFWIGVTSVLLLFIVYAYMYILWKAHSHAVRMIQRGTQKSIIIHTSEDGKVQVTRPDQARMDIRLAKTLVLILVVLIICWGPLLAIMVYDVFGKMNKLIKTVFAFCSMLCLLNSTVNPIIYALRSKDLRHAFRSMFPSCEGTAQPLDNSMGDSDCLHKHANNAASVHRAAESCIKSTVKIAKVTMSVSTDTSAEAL
T3 sequence (P21554 whole entry): as above

On to `Cc1cc2cc(C(=O)c3cccc(Cl)c3Cl)sc2[nH]1` [Compound 2, (2,3-dichlorophenyl)(5-methyl-6H-thieno[2,3-b]pyrrol-2-yl)methanone], for which the IC50 (in general, the midpoint of a concentration-inhibition curve) was greater than 10 µM in assay [1] (setting [3]) and 1 to 10 µM in assay [2] (setting [4]). Besides, the “hCB1 EC50 (cAMP ag, nM)” value at human CB1 receptors was “NS (NS means “Not Significant,” which means less than 30% agonist activity when compared to the positive control.)”. Besides, the EC50 (as a rule, the concentration needed to bring the measured effect to its halfway point) on human CB2 receptors lay in the range of 1000 to 10000 nM.
On to `Cc1cc2cc(C(=O)c3cccnc3)sc2n1CCN1CCOCC1` [Compound 14, (5-Methyl-6-(2-morpholinoethyl)-6H-thieno[2,3-b]pyrrol-2-yl)(pyridin-3-yl)methanone], for which the IC50 in assay [1] is greater than 10 µM; in assay [2] it was 1 to 10 µM. For the same molecule, on human CB1 receptors, the “hCB1 EC50 (cAMP ag, nM)” value is given as “NS (NS means “Not Significant,” which means less than 30% agonist activity when compared to the positive control.)”. Also, the EC50 on human CB2 receptors lay in the range of 100 to 1000 nM.
For `Cc1cc2cc(C(=O)c3ccccn3)sc2n1CCN1CCOCC1` [Compound 16], in that order: greater than 10 µM, 1 to 10 µM, “NS (NS means “Not Significant,” which means less than 30% agonist activity when compared to the positive control.)” and 100 to 1000 nM.
On to `Cc1cc2cc(C(=O)c3cccc(Cl)c3Cl)sc2n1CC(=O)N1CCOCC1` [Compound 22, 2-(2-(2,3-Dichlorobenzoyl)-5-methyl-6H-thieno[2,3-b]pyrrol-6-yl)-1-morpholinoethanone], for which the IC50 in assay [1] was greater than 10 µM; in assay [2] it was 1 to 10 µM. The concentration giving a half-maximal response (EC50) at human CB1 receptors (read-out: hCB1 EC50 (cAMP ag)) and on human CB2 receptors was 100 to 1000 nM throughout.
For the molecule `Cc1cc2cc(C(=O)c3ccncn3)sc2n1CCN1CCOCC1` [Compound 34, (5-Methyl-6-(2-morpholinoethyl)-6H-thieno[2,3-b]pyrrol-2-yl)(pyrimidin-4-yl)methanone], the IC50 in assay [1] (setting [3]) and in assay [2] (setting [4]) was greater than 10 µM each time. Besides, the “hCB1 EC50 (cAMP ag, nM)” value at human CB1 receptors is “NS (NS means “Not Significant,” which means less than 30% agonist activity when compared to the positive control.)”. For the same molecule, the EC50 at human CB2 receptors lay in the range of 1000 to 10000 nM.
Consider `Cc1cc2cc(C(=O)c3ccncc3)sc2n1CCN1CCOCC1` [Compound 40, (5-Methyl-6-(2-morpholinoethyl)-6H-thieno[2,3-b]pyrrol-2-yl)(pyridin-4-yl)methanone], for which the IC50 was greater than 10 µM in assay [1] and 1 to 10 µM in assay [2]. On human CB1 receptors, the “hCB1 EC50 (cAMP ag, nM)” value is on record as “NS (NS means “Not Significant,” which means less than 30% agonist activity when compared to the positive control.)”. Moreover, the EC50 on human CB2 receptors fell in the range of 100 to 1000 nM.
Turning to `COc1ccc(C(=O)c2cc3cc(C)n(C(=O)N4CCOCC4)c3s2)cc1` [Compound 66, (2-(4-Methoxybenzoyl)-5-methyl-6H-thieno[2,3-b]pyrrol-6-yl)(morpholino)methanone], the IC50 in assay [1] (setting [3]) and in assay [2] (setting [4]) was greater than 10 µM each time. For the same molecule, the “hCB1 EC50 (cAMP ag, nM)” value at human CB1 receptors is recorded as “NS (NS means “Not Significant,” which means less than 30% agonist activity when compared to the positive control.)”.
`COc1ccc(C(=O)c2cc3cc(C)n(CCC(=O)O)c3s2)cc1` [Compound 73, 3-(2-(4-Methoxybenzoyl)-5-methyl-6H-thieno[2,3-b]pyrrol-6-yl)propanoic acid]: the half-maximal inhibitory concentration (IC50) in assay [1] (setting [3]) and in assay [2] (setting [4]) was greater than 10 µM in each case. Also, the “hCB1 EC50 (cAMP ag, nM)” value on human CB1 receptors is recorded as “NS (NS means “Not Significant,” which means less than 30% agonist activity when compared to the positive control.)”. In addition, at human CB2 receptors (inhibition of forskolin-stimulated cAMP, HEK-293 cells), the “hCB2 EC50 (cAMP ag, nM)” value is given as “NS (NS means “Not Significant,” which means less than 30% agonist activity when compared to the positive control.)”.
On to `CCS(=O)(=O)NCCCn1c(C)cc2cc(C(=O)c3ccc(OC)cc3)sc21` [Compound 74, N-(3-(2-(4-Methoxybenzoyl)-5-methyl-6H-thieno[2,3-b]pyrrol-6-yl)propyl)ethanesulfonamide], for which the IC50 in assay [1] is greater than 10 µM; in assay [2] it was 1 to 10 µM. Further, at human CB1 receptors, the “hCB1 EC50 (cAMP ag, nM)” value is given as “NS (NS means “Not Significant,” which means less than 30% agonist activity when compared to the positive control.)”. Further, the EC50 at human CB2 receptors was in the range of 100 to 1000 nM.
In the case of `COc1ccc(C(=O)c2cc3cc(C)n(CCN4CCOCC4=O)c3s2)cn1` [Compound 148, 4-(2-(2-(6-methoxynicotinoyl)-5-methyl-6H-thieno[2,3-b]pyrrol-6-yl)ethyl)morpholin-3-one], the IC50 in assay [1] (setting [3]) and in assay [2] (setting [4]) was greater than 10 µM each time. Further, at human CB1 receptors, the “hCB1 EC50 (cAMP ag, nM)” value is listed as “NS (NS means “Not Significant,” which means less than 30% agonist activity when compared to the positive control.)”.
